According to patent US11104630B2, “Synthesis of mono-chlorinated acetophenone” (SIEGFRIED AG, priority 2017, dated 2021):

Assay: Solubility of the starting material in the solvent
Format: physicochemical
Settings: 20° C., until clear solution
Experimental: Solubility of the Starting Material in the Solvent
To 1 g of HAP is added 5 ml of solvent. The mixture is stirred in a water bath at 20° C. The solvent is further slowly added under stirring until a clear solution appears.
The amount of used solvent is noted.

SMILES: CC(=O)c1cccc(O)c1 [HAP, 3-hydroxy-acetophenon]
- Solvent in ml per g HAP (solvent Acetone): 46 ml per g HAP
- Solvent in ml per g HAP (solvent Acetonitrile): 6 ml per g HAP
- Solvent in ml per g HAP (solvent Cyclohexane): >200 ml per g HAP
- Solvent in ml per g HAP (solvent DCM): 22 ml per g HAP
- Solvent in ml per g HAP (solvent Ethanol): 20 ml per g HAP
- Solvent in ml per g HAP (solvent Ether): 8 ml per g HAP
- Solvent in ml per g HAP (solvent Methanol): 10 ml per g HAP
- Solvent in ml per g HAP (solvent Tetraglyme): 9 ml per g HAP
- Solvent in ml per g HAP (solvent Toluene): 156 ml per g HAP
- Solvent in ml per g HAP (solvent n-Heptane): 20 ml per g HAP
- Solvent in ml per g HAP (solvent n-Hexane): 23 ml per g HAP
